Paper PMC13071375, “Restriction endonuclease selective inhibition by β-cyclodextrin sulfate” (Bioscience Reports, 2025)
“And” between values parts separate entries of the source, which are not always exact repeats. Equal values may be shown once. Where a name gives a salt, the structure may show the parent alone. Read-outs that look alike come from different tables or passages of the source.

Experiments:
KpnI = system: KpnI; set-up: method as in PMID 25581012; conditions: cited from earlier work
XapI = system: XapI; set-up: method as in PMID 25581012; conditions: cited from earlier work
SacI = system: SacI; set-up: method as in PMID 25581012; conditions: cited from earlier work
HindIII [1] = target: T1, HindIII (Haemophilus influenzae, UniProt P43870); experiment: biochemical; conditions: Nl-pBR322 substrate, 40 min digestion at 37°C, Buffer R
Protocol: (§2) Digestion time course studies were conducted for each RE by incubating 2 μl of NdeI-linearised pBR322 (2.5 ng/μl), 1 μl of RE (1.25 U/μl), 2 μl of appropriate buffer, and 15 μl of molecular biology grade water at 37°C for various times (Supplementary Figure S1). […] These times were used as the digestion time for the RE inhibition assays.
(§3) To determine the effects of β-CDsul treatment on REs, Nl-pBR322 was incubated at 37°C with EcoRI, VspI, or HindIII for the previously determined amount of time.
(§4) β-CDsul and EDTA stock solutions were made in molecular biology grade water, and dilution series were prepared at appropriate concentrations to give the necessary final concentrations of each in the assay mixture. The assay mixture composition was 2 μl of Nl-pBR322 (2.5 ng/μl), 1 μl of RE (1.25 U/μl), 2 μl of appropriate buffer, 1 μl of β-CDsul or EDTA at desired concentration, and 14 μl of molecular biology grade water. As a negative control, 1 μl extra of microbiology grade water was used instead of EDTA or β-CDsul. After the appropriate amount of incubation time at 37°C, the REs were thermally inactivated by incubation at 65°C for 20 min.
(§5) Electrophoresis gel solution was prepared using 0.8% (w/v) agarose (Thermo Scientific™ Agarose I (Molecular Biology Grade)) with 1× TBE Buffer (Thermo Scientific™ TBE Buffer (Tris–borate–EDTA) (10×)). The mixture was heated until the agarose was completely dissolved and the solution became clear. Sybr Safe DNA stain (1% (v/v), Invitrogen™ SYBR™ Safe DNA Gel Stain) was added into the agarose solution. The final solution was poured into the gel tray and cooled down to room temperature (25°C). […]
(§6) Gel images were captured using a UV-transilluminator capturing system (Syngene™ Ingenius 3 Manual Gel Documentation System) with the following parameters: resolution: 3.0 MP, bit depth: 12/16 bit, and wavelength: 302 nm. The images were analysed using GelAnalyzer [19] software by calculating the normalised intensities of fragment bands.

EcoRI = target: T2, EcoRI (Escherichia coli, UniProt P00642); format: biochemical
T2 construct: purchased Thermo Fisher Scientific ER0271
Protocol: as §2, §3, §4
Electrophoresis gel solution was prepared using 0.8% (w/v) agarose (Thermo Scientific™ Agarose I (Molecular Biology Grade)) with 1× TBE Buffer (Thermo Scientific™ TBE Buffer (Tris–borate–EDTA) (10×)). The mixture was heated until the agarose was completely dissolved and the solution became clear. Sybr Safe DNA stain (1% (v/v), Invitrogen™ SYBR™ Safe DNA Gel Stain) was added into the agarose solution. The final solution was poured into the gel tray and cooled down to room temperature (25°C). Ten microliters of samples from digestion experiments was mixed well with 1 μl of 500× diluted SYBR Safe Gel Stain (ThermoFisher Scientific™ Invitrogen, catalogue number S33102) and 1 μl of 5× diluted FlashGel Loading Dye (Lonza Bioscience, catalogue number 50462) and then loaded into wells. A FlashGel™ Dock system was used for electrophoresis with a voltage of 0–300 VDC, power of 15 W, and current of 50 mA.
as §6

VspI = format: biochemical; conditions: for IC50: Nl-pBR322 substrate, 20 min digestion at 37°C, Buffer O
Protocol: as §2, §3, §4, §5, §6

REs = system: REs; set-up: method as in PMID 25126898; conditions: cited from earlier work
HindIII [2] = target: T1, HindIII; conditions: read-out: IC50 HindIII; Nl-pBR322 substrate, 40 min digestion at 37°C, Buffer R
Protocol: as §2, §3, §4, §5, §6

Nrul = system: Nrul; set-up: method as in PMID 25126898; conditions: digestion of λ DNA; cited from earlier work
HindIII [3] = target: T1, HindIII; set-up: purchased Thermo Fisher Scientific ER0501; method as in PMID 25126898; conditions: digestion of λ DNA; cited from earlier work
EcoRI and VspI [4] = experiment: Co-digestion assay of Nl-pBR322 with EcoRI and VspI (dual RE system); format: biochemical
Protocol: (§1) The digestion time was either variable or fixed at 120 min for the variable concentration experiment to achieve full digestion. The composition of the components with the co-digestion assays was more complex than single digestion systems due to the need for simultaneously optimising the activity of each RE in the non-ideal buffer system of the other RE.

EcoRI and VspI [5] = system: T3, EcoRI and VspI; experiment: as above; format: biochemical
T3 construct: purchased Thermo Fisher Scientific ER0271, ER0911
Protocol: as §1

[6] = Nl-pBR322 substrate, 20 min digestion at 37°C, Buffer EcoRI, read-out: IC50 EcoRI
[7] = 10 μM β-CDsul, time course 30–240 min

T2 sequence (P00642 2-277): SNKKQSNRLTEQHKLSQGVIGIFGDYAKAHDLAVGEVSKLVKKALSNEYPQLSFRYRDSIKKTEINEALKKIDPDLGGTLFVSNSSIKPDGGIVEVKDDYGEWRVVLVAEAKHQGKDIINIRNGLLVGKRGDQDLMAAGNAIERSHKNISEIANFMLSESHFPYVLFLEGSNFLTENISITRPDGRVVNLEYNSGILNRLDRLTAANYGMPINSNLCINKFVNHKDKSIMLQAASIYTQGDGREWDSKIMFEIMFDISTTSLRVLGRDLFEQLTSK
T1 sequence (P43870 whole entry): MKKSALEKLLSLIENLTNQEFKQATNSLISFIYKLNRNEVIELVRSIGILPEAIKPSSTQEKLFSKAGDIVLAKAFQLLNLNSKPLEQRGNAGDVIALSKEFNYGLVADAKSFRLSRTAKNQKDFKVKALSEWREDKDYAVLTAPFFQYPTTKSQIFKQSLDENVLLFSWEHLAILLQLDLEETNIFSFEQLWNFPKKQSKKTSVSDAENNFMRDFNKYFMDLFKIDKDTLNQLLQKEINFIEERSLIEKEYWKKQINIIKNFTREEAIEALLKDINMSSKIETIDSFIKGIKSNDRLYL

For `O=C1N2CN3C(=O)N4CN5C(=O)N6CN7C(=O)N8CN9C(=O)N%10CN%11C(=O)N%12CN%13C(=O)N%14CN1C1C2N2CN%15C(=O)N(CN%16C(=O)N(CN%17C(=O)N(CN%18C(=O)N(CN%19C(=O)N(CN%20C(=O)N(CN1C2=O)C%14C%13%20)C%12C%11%19)C%10C9%18)C8C7%17)C6C5%16)C4C3%15` (stereo not drawn) [CB7], the IC50 (KpnI; linearised pGL3-Basic DNA) is listed as about 200 µM, the IC50 (KpnI; plasmid pGL3-Basic DNA) is listed as about 90 µM and the IC50 (XapI; linearised pGL3-Basic DNA) is listed as about 500 µM. For the same compound, the IC50 (XapI; plasmid pGL3-Basic DNA) was about 500 µM, the IC50 (SacI; linearised pGL3-Basic DNA) was about 350 µM and the IC50 (SacI; plasmid pGL3-Basic DNA) was about 250 µM.

For `O=C(O)CN(CCN(CC(=O)O)CC(=O)O)CC(=O)O` [EDTA], the IC50 (HindIII [1]) was 13 µM and 12 µM, the IC50 (EcoRI; [6]) was 18 µM and 17 µM and the IC50 (EcoRI; all three enzymes, Nl-pBR322, read-out: range of IC50 values across EcoRI, HindIII and VspI) was 12 to 17 µM. It also gave an IC50 (VspI) of 12 µM.

In the case of `OC[C@H]1O[C@@H]2O[C@H]3[C@H](O)[C@@H](O)[C@@H](O[C@H]4[C@H](O)[C@@H](O)[C@@H](O[C@H]5[C@H](O)[C@@H](O)[C@@H](O[C@H]6[C@H](O)[C@@H](O)[C@@H](O[C@H]7[C@H](O)[C@@H](O)[C@@H](O[C@H]8[C@H](O)[C@@H](O)[C@@H](O[C@H]1[C@H](O)[C@H]2O)O[C@@H]8CO)O[C@@H]7CO)O[C@@H]6CO)O[C@@H]5CO)O[C@@H]4CO)O[C@@H]3CO` [β-CD], the “inhibition of REs” value (REs) is given as “no inhibition was observed”.

For `O=S(=O)(O)OCC1OC2OC3C(COS(=O)(=O)O)OC(OC4C(COS(=O)(=O)O)OC(OC5C(COS(=O)(=O)O)OC(OC6C(COS(=O)(=O)O)OC(OC7C(COS(=O)(=O)O)OC(OC8C(COS(=O)(=O)O)OC(OC1C(OS(=O)(=O)O)C2OS(=O)(=O)O)C(OS(=O)(=O)O)C8OS(=O)(=O)O)C(OS(=O)(=O)O)C7OS(=O)(=O)O)C(OS(=O)(=O)O)C6OS(=O)(=O)O)C(OS(=O)(=O)O)C5OS(=O)(=O)O)C(OS(=O)(=O)O)C4OS(=O)(=O)O)C(OS(=O)(=O)O)C3OS(=O)(=O)O` (stereo not drawn) [β-CDsul, β-cyclodextrin sulfate], the IC50 (HindIII [2]) is given as 65 µM, the IC50 (Nrul) is given as 3 µM and the IC50 (HindIII [3]) is given as 6 µM. For the same compound, the “fold difference in IC50 values, EcoRI vs HindIII or VspI” value (EcoRI; EcoRI vs HindIII or VspI) was 13- to 27 fold, the IC50 (EcoRI; [6]) was 5 µM and the “fold more potent at inhibiting EcoRI compared with HindIII” value (EcoRI; ratio of IC50s, EcoRI vs HindIII) was 13 fold. The “fold more potent at inhibiting EcoRI compared with VspI” value (EcoRI; ratio of IC50s, EcoRI vs VspI) was “about 27 fold”, the “time of maximum concentration of fragment A in EcoRI/VspI co-digestion” value (EcoRI and VspI [4]; [7]) was 60 min and the “digestion in EcoRI/VspI co-digestion” value (EcoRI and VspI [4]; Five hundred micromolar β-CDsul, 120 min) was “no digestion by either RE”. The “decrease of fragment A concentration (EcoRI action) in EcoRI/VspI co-digestion” value (EcoRI and VspI [5]; [7]) was “does not decrease until 240 min”, the “EcoRI inhibition in EcoRI/VspI co-digestion (fragment A concentration)” value (EcoRI and VspI [5]; between 5 and 10 μM β-CDsul, 120 min, still no Nl-pBR322, VspI less affected) was “significant increase in EcoRI inhibition” and the IC50 (VspI) was 133 µM. The “fold difference in IC50 against VspI and HindIII” value (VspI; VspI vs HindIII) was “two-fold”.
